Values joined by “and” are separate entries in the source; they are usually repeats but may differ in a detail not shown here. Equal values may be shown once.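 Exposure lasted 48 hours, with cells grown in 96-well plates and compounds tested at five concentrations. At the GI50, growth is halved. TGI is the concentration that stops growth completely.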
Assays:
Test in all cases: NCI anticancer screen, dose series, 48 h; in the data active means GI50 below about 0.43 µM; inactive means the rest
[1] = system: 786-0 renal
[2] = system: A498 renal
[3] = system: A549 NSCLC
[4] = system: ACHN renal
[5] = system: CAKI-1 renal
[6] = system: CCRF-CEM leukemia
[7] = system: COLO 205 colon
[8] = system: DLD-1 colon
[9] = system: DMS 114 small cell lung
[10] = system: DMS 273 small cell lung
[11] = system: EKVX NSCLC
[12] = system: HCC-2998 colon
[13] = system: HCT-116 colon
[14] = system: HCT-15 colon
[15] = system: HL-60(TB) leukemia
[16] = system: HOP-18 NSCLC
[17] = system: HOP-62 NSCLC
[18] = system: HOP-92 NSCLC
[19] = system: HT29 colon
[20] = system: IGROV1 ovarian
[21] = system: K-562 leukemia
[22] = system: KM12 colon
[23] = system: KM20L2 colon
[24] = system: LOX IMVI melanoma
[25] = system: LXFL 529 NSCLC
[26] = system: M14 melanoma
[27] = system: M19-MEL melanoma
[28] = system: MALME-3M melanoma
[29] = system: MOLT-4 leukemia
[30] = system: NCI-H226 lung
[31] = system: NCI-H23 lung
[32] = system: NCI-H460 lung
[33] = system: NCI-H522 lung
[34] = system: OVCAR-3 ovarian
[35] = system: OVCAR-4 ovarian
[36] = system: OVCAR-5 ovarian
[37] = system: OVCAR-8 ovarian
[38] = system: RPMI-8226 leukemia
[39] = system: RXF 393 renal
[40] = system: RXF-631 renal
[41] = system: SF-268 CNS
[42] = system: SF-295 CNS
[43] = system: SF-539 CNS
[44] = system: SK-MEL-5 melanoma
[45] = system: SK-OV-3 ovarian
[46] = system: SN12C renal
[47] = system: SNB-19 CNS
[48] = system: SNB-75 CNS
[49] = system: SNB-78 CNS
[50] = system: SR leukemia
[51] = system: SW-620 colon
[52] = system: TK-10 renal
[53] = system: U251 CNS
[54] = system: UACC-257 melanoma
[55] = system: UACC-62 melanoma
[56] = system: UO-31 renal
[57] = system: XF 498 CNS
[58] = system: SK-MEL-2 melanoma
[59] = system: SK-MEL-28 melanoma

Clc1cccc(Cl)c1C1SCc2nc3ccccc3n21 (stereo not drawn)
> 100 µM: TGI [1] | TGI [2] | TGI [3] | TGI [4] | TGI [5] | TGI [6] | TGI [7] | TGI [8] | TGI [9] | TGI [10] | TGI [11] | TGI [12] | TGI [13] | TGI [14] | TGI [15] | TGI [16] | TGI [17] | TGI [18] | TGI [19] | TGI [20] | TGI [21] | TGI [22] | TGI [23] | TGI [24] | TGI [25] | TGI [26] | TGI [27] | TGI [28] | TGI [29] | TGI [30] | TGI [31] | TGI [32] | TGI [33] | TGI [34] | TGI [35] | TGI [36] | TGI [37] | TGI [38] | TGI [39] | TGI [41] | TGI [42] | TGI [43] | TGI [45] | TGI [46] | TGI [47] | TGI [48] | TGI [49] | TGI [50] | TGI [51] | TGI [52] | TGI [53] | TGI [54] | TGI [55] | TGI [56] | TGI [57]
67 µM: TGI [44]
41.7 µM: TGI [40]

COC1OC(COC(C)=O)C(OC(C)=O)C(OC(C)=O)C1NC(=O)N(CCCl)N=O (stereo not drawn)
74 µM and > 100 µM: TGI [15]
inactive: GI50 [6] 15.2 µM and 90.3 µM | GI50 [29] 26.2 µM and > 100 µM | GI50 [43] > 100 µM and 24.7 µM
> 100 µM: TGI [1] | TGI [2] | TGI [3] | TGI [4] | TGI [5] | TGI [6] | TGI [7] | TGI [8] | TGI [9] | TGI [10] | TGI [11] | TGI [12] | TGI [13] | TGI [16] | TGI [19] | TGI [20] | TGI [21] | TGI [22] | TGI [23] | TGI [24] | TGI [25] | TGI [26] | TGI [27] | TGI [28] | TGI [29] | TGI [30] | TGI [31] | TGI [32] | TGI [33] | TGI [34] | TGI [35] | TGI [36] | TGI [37] | TGI [39] | TGI [40] | TGI [41] | TGI [42] | TGI [58] | TGI [59] | TGI [44] | TGI [45] | TGI [46] | TGI [47] | TGI [48] | TGI [49] | TGI [51] | TGI [52] | TGI [54] | TGI [55] | TGI [57]
> 100 µM and 91.7 µM: TGI [43]

Cc1ccc(C(=O)O)cc1NC(=O)c1cc(/C=C/c2ccccc2)[nH]c(=S)n1
> 100 µM: TGI [1] | TGI [2] | TGI [3] | TGI [4] | TGI [5] | TGI [6] | TGI [7] | TGI [9] | TGI [10] | TGI [11] | TGI [12] | TGI [15] | TGI [16] | TGI [17] | TGI [18] | TGI [19] | TGI [20] | TGI [21] | TGI [22] | TGI [23] | TGI [24] | TGI [25] | TGI [26] | TGI [28] | TGI [29] | TGI [30] | TGI [31] | TGI [32] | TGI [33] | TGI [34] | TGI [35] | TGI [36] | TGI [37] | TGI [39] | TGI [40] | TGI [41] | TGI [42] | TGI [43] | TGI [59] | TGI [44] | TGI [45] | TGI [46] | TGI [47] | TGI [48] | TGI [49] | TGI [50] | TGI [52] | TGI [53] | TGI [54] | TGI [55] | TGI [56] | TGI [57]
> 48.8 µM: TGI [51]
> 60.7 µM: TGI [14]
> 69.7 µM: TGI [38]
> 53 µM: TGI [13]
> 77.1 µM: TGI [8]

CCOC(=O)C12CCCC1(O)N(NC(N)=O)C(C)=C2C(=O)OC (stereo not drawn)
> 100 µM: TGI [1] | TGI [2] | TGI [3] | TGI [4] | TGI [5] | TGI [6] | TGI [7] | TGI [8] | TGI [9] | TGI [10] | TGI [11] | TGI [12] | TGI [13] | TGI [14] | TGI [15] | TGI [16] | TGI [17] | TGI [18] | TGI [19] | TGI [20] | TGI [21] | TGI [22] | TGI [23] | TGI [24] | TGI [25] | TGI [26] | TGI [27] | TGI [28] | TGI [29] | TGI [30] | TGI [31] | TGI [32] | TGI [33] | TGI [34] | TGI [35] | TGI [36] | TGI [37] | TGI [38] | TGI [40] | TGI [41] | TGI [42] | TGI [43] | TGI [58] | TGI [59] | TGI [45] | TGI [46] | TGI [47] | TGI [49] | TGI [51] | TGI [52] | TGI [53] | TGI [54] | TGI [55] | TGI [56] | TGI [57]

CNc1ccccc1-c1nc2ccccc2c(=O)o1
> 100 µM: TGI [3] | TGI [4] | TGI [5] | TGI [6] | TGI [7] | TGI [8] | TGI [9] | TGI [10] | TGI [11] | TGI [12] | TGI [13] | TGI [14] | TGI [15] | TGI [16] | TGI [20] | TGI [21] | TGI [22] | TGI [23] | TGI [24] | TGI [25] | TGI [26] | TGI [27] | TGI [28] | TGI [29] | TGI [30] | TGI [32] | TGI [35] | TGI [36] | TGI [37] | TGI [38] | TGI [40] | TGI [41] | TGI [42] | TGI [43] | TGI [58] | TGI [59] | TGI [44] | TGI [45] | TGI [46] | TGI [47] | TGI [49] | TGI [50] | TGI [51] | TGI [52] | TGI [53] | TGI [54] | TGI [56] | TGI [57]
97.6 µM: TGI [48]

Source: PubChem BioAssay (NCI)
